Results: ChEMBL document CHEMBL3351422, “Discovery of N-substituted 7-azaindoline derivatives as potent, orally available M1 and M4 muscarinic acetylcholine receptors selective agonists” (Bioorg Med Chem Lett, 2014)

Tests used:
[1] = molecular target: T1, Muscarinic acetylcholine receptor M1 (Homo sapiens) (UniProt P11229); assay: Agonist activity at muscarinic M1 receptor (unknown origin) at 1 uM by calcium mobilization assay; type: functional
T1 sequence (whole entry): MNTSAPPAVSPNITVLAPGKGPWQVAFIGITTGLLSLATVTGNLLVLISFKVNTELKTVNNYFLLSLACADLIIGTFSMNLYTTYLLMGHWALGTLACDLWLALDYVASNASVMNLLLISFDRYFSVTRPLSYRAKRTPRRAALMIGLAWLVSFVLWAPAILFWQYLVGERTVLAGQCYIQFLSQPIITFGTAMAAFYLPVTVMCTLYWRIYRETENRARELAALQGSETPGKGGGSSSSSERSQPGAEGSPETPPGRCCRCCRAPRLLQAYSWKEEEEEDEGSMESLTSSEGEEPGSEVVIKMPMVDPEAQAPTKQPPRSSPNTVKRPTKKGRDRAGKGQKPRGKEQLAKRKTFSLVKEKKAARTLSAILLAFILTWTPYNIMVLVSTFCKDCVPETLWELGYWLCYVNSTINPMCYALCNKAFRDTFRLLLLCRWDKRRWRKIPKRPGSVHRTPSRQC

[2] = molecular target: T2, Muscarinic acetylcholine receptor M2 (Homo sapiens) (UniProt P08172); assay: Agonist activity at muscarinic M2 receptor (unknown origin) at 1 uM by calcium mobilization assay; type: functional
T2 sequence (whole entry): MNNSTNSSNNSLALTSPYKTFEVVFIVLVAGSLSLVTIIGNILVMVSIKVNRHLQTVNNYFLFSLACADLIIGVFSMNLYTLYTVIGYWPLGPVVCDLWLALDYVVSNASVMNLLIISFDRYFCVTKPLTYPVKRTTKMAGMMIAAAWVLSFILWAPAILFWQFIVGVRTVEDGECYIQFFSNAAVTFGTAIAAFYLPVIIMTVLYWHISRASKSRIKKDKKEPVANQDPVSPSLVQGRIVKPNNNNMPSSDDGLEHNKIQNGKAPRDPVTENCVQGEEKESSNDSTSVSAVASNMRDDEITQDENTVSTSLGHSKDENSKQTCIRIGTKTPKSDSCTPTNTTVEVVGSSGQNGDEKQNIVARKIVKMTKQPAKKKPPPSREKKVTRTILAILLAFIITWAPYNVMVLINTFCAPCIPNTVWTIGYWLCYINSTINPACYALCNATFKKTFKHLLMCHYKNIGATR

[3] = molecular target: Muscarinic acetylcholine receptor M3 (Homo sapiens) (UniProt P20309); assay: Agonist activity at muscarinic M3 receptor (unknown origin) at 1 uM by calcium mobilization assay; type: functional
Muscarinic acetylcholine receptor M3 (Homo sapiens), sequence (P20309 whole entry, looked up): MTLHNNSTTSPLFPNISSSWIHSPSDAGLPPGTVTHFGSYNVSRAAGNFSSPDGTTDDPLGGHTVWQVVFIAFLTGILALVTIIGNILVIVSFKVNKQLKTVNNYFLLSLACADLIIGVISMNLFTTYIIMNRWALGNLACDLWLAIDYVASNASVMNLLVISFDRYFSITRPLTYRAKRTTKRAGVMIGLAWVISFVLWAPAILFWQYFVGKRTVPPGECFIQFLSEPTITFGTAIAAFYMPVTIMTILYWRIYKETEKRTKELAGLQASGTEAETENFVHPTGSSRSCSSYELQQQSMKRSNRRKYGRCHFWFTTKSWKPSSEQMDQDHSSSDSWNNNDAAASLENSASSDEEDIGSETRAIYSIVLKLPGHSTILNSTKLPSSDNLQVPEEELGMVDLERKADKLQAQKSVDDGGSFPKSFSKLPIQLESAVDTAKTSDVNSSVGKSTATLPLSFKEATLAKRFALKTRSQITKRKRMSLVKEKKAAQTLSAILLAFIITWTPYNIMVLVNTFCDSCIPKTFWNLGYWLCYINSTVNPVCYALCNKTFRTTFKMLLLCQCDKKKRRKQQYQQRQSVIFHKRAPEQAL

[4] = molecular target: T3, Muscarinic acetylcholine receptor M4 (Homo sapiens) (UniProt P08173); assay: Agonist activity at muscarinic M4 receptor (unknown origin) at 1 uM by calcium mobilization assay; type: functional
T3 sequence (whole entry): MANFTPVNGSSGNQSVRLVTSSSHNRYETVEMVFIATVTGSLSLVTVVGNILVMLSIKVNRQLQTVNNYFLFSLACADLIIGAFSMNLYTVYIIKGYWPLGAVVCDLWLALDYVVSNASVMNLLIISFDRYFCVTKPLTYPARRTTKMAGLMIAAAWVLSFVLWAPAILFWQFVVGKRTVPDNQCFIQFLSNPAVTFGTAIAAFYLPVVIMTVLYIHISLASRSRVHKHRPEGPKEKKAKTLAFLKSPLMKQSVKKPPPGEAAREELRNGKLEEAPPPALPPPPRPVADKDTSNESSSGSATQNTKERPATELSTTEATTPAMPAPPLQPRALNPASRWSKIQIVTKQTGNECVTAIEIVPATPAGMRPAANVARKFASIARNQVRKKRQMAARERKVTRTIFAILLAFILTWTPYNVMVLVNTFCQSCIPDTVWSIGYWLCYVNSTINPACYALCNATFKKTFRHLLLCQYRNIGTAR

[5] = molecular target: T4, Muscarinic acetylcholine receptor M5 (Homo sapiens) (UniProt P08912); assay: Agonist activity at muscarinic M5 receptor (unknown origin) at 10 uM by calcium mobilization assay; type: functional
T4 sequence (whole entry): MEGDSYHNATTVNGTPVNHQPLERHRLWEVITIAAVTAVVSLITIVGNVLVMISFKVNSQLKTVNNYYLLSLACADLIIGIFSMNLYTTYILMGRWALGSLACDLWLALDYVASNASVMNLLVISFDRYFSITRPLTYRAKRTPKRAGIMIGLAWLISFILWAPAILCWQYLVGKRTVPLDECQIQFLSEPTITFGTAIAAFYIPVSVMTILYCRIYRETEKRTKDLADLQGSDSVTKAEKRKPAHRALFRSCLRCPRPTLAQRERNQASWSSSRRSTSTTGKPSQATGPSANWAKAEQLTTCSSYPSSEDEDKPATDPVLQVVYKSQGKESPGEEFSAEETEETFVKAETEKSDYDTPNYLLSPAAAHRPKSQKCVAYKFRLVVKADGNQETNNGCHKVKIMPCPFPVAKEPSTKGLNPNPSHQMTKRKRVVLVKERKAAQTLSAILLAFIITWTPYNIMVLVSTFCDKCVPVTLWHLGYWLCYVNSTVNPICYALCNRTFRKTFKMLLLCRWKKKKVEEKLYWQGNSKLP

[6] = Oral bioavailability in rat at 2.5 mg/kg; type: ADME, organism-based; settings: in vivo
[7] = Clearance in rat at 0.25 mg/kg, iv and 2.5 mg/kg, po; type: ADME, organism-based; settings: in vivo
[8] = molecular target: T1, Muscarinic acetylcholine receptor M1 (Homo sapiens); assay: Agonist activity at muscarinic M1 receptor (unknown origin) at 0.3 uM by calcium mobilization assay; type: functional
[9] = molecular target: T2, Muscarinic acetylcholine receptor M2 (Homo sapiens); assay: Agonist activity at muscarinic M2 receptor (unknown origin) at 0.3 uM by calcium mobilization assay; type: functional
[10] = molecular target: Muscarinic acetylcholine receptor M3 (Homo sapiens) (UniProt P20309); assay: Agonist activity at muscarinic M3 receptor (unknown origin) at 0.3 uM by calcium mobilization assay; type: functional
[11] = molecular target: T3, Muscarinic acetylcholine receptor M4 (Homo sapiens); assay: Agonist activity at muscarinic M4 receptor (unknown origin) at 0.3 uM by calcium mobilization assay; type: functional
[12] = Lipophilicity, log P of the compound; type: physicochemical; settings: octanol/water
[13] = molecular target: Voltage-gated inwardly rectifying potassium channel KCNH2 (Homo sapiens, UniProt Q12809); assay: Inhibition of human ERG channel
Voltage-gated inwardly rectifying potassium channel KCNH2, sequence (Q12809 whole entry): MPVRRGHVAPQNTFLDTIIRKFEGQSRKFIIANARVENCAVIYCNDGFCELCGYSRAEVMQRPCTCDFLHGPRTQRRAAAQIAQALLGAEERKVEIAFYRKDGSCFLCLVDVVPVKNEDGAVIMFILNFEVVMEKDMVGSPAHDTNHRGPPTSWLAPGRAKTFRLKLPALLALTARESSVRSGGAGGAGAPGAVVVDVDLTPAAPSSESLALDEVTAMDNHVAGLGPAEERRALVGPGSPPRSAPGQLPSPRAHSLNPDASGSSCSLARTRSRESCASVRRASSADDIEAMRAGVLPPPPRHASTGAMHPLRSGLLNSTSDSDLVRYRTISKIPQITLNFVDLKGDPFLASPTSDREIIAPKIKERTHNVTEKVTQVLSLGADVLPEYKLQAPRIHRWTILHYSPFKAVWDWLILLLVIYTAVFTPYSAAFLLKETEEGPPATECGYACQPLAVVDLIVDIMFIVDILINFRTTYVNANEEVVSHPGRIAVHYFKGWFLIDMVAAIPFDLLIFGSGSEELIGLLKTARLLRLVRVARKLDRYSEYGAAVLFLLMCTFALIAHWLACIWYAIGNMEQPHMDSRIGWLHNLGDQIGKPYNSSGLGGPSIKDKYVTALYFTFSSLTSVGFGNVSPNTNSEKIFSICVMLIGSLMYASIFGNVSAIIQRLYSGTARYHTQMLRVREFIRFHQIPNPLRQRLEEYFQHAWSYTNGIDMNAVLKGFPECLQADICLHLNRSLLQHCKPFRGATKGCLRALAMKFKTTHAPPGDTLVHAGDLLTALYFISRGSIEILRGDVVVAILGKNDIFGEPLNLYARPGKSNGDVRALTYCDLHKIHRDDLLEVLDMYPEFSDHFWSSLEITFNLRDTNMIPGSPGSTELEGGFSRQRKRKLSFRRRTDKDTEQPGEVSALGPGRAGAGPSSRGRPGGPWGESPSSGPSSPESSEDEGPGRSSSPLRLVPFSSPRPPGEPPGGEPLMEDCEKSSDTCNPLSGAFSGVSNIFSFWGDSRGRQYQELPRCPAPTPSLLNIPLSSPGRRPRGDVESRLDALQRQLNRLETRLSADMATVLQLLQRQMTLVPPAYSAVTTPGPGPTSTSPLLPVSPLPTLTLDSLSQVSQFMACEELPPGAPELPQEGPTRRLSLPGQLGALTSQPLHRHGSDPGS

Row | Compound | Activity [1] | Activity [2] | Activity [3] | Activity [4] | Activity [5] | Activity [11] | other results
1 | CCOC(=O)N1CCC(CN2CCC3(CC2)CC(=O)N(CC)c2ncccc23)CC1 | 91% | 20% | 2% | 134% | 3% | – | bioavailability [6]: 2.6%; clearance [7]: 49.3 mL/min/kg
2 | CCOC(=O)N1CCC(CN2CCC3(CC2)CN(S(C)(=O)=O)c2ncccc23)CC1 | – | – | – | – | 3% | 88% | Activity [8]: 20%; Activity [9]: 12%; Activity [10]: 7%
3 | CCNC(=O)N1CC2(CCN(CC3CCN(C(=O)OCC)CC3)CC2)c2cccnc21 | 55% | 13% | 5% | 77% | 11% | – | IC50 [13]: 230 nM
4 | CCOC(=O)N1CCC(CN2CCC3(CC2)OC(=O)Nc2ncccc23)CC1 | – | – | – | – | – | – | clearance [7]: 17.5 mL/min/kg
5 | CCOC(=O)N1CCC(CN2CCC3(CC2)CN(CC)c2ncccc23)CC1 | 34% | 14% | 6% | 58% | 17% | – | –
6 | CCOC(=O)N1CCC(CN2CCC3(CC2)OC(=O)N(C)c2ncccc23)CC1 | – | – | – | – | – | – | clearance [7]: 71.6 mL/min/kg
7 | CCOC(=O)N1CCC(CN2CCC3(CC2)CN(C(=O)N(CC)CC)c2ncccc23)CC1 | 52% | 23% | 4% | 132% | 9% | – | IC50 [13]: 2540 nM

Continued, in another order:

Row | Activity [1] | Activity [2] | Activity [3] | Activity [4] | Activity [5] | Activity [11] | Compound | other results
8 | – | – | – | – | 8% | 103% | CCOC(=O)N1CCC(CN2CCC3(CC2)CN(C(N)=O)c2ncccc23)CC1 | Activity [8]: 99%; Activity [9]: 17%; Activity [10]: 11%; logP [12]: 2
9 | – | – | – | 7% | – | – | CCOC(=O)N1CCC(CN2CCC3(CC2)CN(C(=O)OC)c2ncccc23)CC1 | –
10 | – | – | – | – | – | 29% | CCOC(=O)N1CCC(CN2CCC3(CC2)CN(C(=O)N2CCC2)c2ncccc23)CC1 | –
11 | – | – | – | – | – | 10% | CCOC(=O)N1CCC(CN2CCC3(CC2)CN(C(=O)N2CCCC2)c2ncccc23)CC1 | –
12 | – | – | – | – | 17% | 98% | CCOC(=O)N1CCC(CN2CCC3(CC2)CN(C(=O)NC)c2ncccc23)CC1 | Activity [8]: 74%; Activity [9]: 7%; Activity [10]: 8%; IC50 [13]: 300 nM; logP [12]: 2.5
